Data taken from patent US5789447A, “Nitric oxide releasing compounds as protective agents in ischemia reperfusion injury” (priority 1995, dated 1998).

What was measured:
[1] = system: Chinese hamster V79 lung fibroblasts; experiment: V79 clonogenic survival, hypoxanthine/xanthine oxidase (HX/XO) cytotoxicity; conditions: decomposition products of DEA/NO, 1 mM
Procedure: Chinese hamster V79 lung fibroblasts were cultured in F12 medium supplemented with 10% fetal calf serum and antibiotics. Cell survival was assessed by clonogenic assay with 85-95% plating efficiency. Stock cultures of exponentially growing cells were trypsinized, rinsed, and plated (7×10^5 cells/dish) into a number of 100 cm^2 petri dishes and incubated 16 hr at 37° C. prior to experimental protocols.
It has been shown that exposure of V79 cells to hydrogen peroxide results in dose-dependent cytotoxicity (Mitchell et al., supra).
HX and XO were purchased from Boehringer Co. (Indianapolis, Ind.). Nitrite, diethylamine, sulfinamide, diethylenetriaminepentaacetic acid (DETAPAC) and N-(1-naphthyl)ethylenediaminedihydrogenchloride (NEDD) were purchased from Aldrich (Milwaukee, Wis.). Cytosine-β-D-arabinofuranoside and ferricytochrome c were purchased from Sigma (St. Louis, Mo.). DEA/NO and SPER/NO were synthesized as previously described (Maragos et al., (1991), supra).
Exponentially growing cultures of Chinese hamster V79 fibroblasts were exposed to either HX/XO (final concentration of HX was 0.5 mM; 0.08 units/ml XO were used) for various amounts of time (FIG. 1A) or to various concentrations of hydrogen peroxide for one hour (FIG. 1B). […] Additionally, 1 mM DEA/NO was added to medium in the absence of cells, incubated at 37° C. for 1 hr or 16 hrs, and then added just prior to the addition of hydrogen peroxide to evaluate the effects of DEA/NO which had released NO. After treatment, cell monolayers were rinsed twice with phosphate-buffered saline (PBS), trypsinized, counted and plated in triplicate for macroscopic colony formation. Each dose determination was plated in triplicate and experiments were repeated a minimum of two times. Plates were incubated for 7 days, after which colonies were fixed with methanol/acetic acid (3:1), stained with crystal violet, and counted. Colonies containing more than 50 cells were scored.

[2] = system: Chinese hamster V79 lung fibroblasts; experiment: V79 clonogenic survival, hydrogen peroxide cytotoxicity; type: cell-based; conditions: 1 mM; for effect on hydrogen peroxide cytotoxicity: FIG. 2B; for protection from hydrogen peroxide cytotoxicity: decomposition products of DEA/NO, FIG. 1B
Excerpt: Colonies containing more than 50 cells were scored.

[3] = molecular target: T1, XO (Bos taurus, UniProt P80457); experiment: XO activity by superoxide-induced reduction of ferricytochrome c; type: biochemical; conditions: 1 mM, preincubated with HX/XO
T1 sequence (P80457 whole entry): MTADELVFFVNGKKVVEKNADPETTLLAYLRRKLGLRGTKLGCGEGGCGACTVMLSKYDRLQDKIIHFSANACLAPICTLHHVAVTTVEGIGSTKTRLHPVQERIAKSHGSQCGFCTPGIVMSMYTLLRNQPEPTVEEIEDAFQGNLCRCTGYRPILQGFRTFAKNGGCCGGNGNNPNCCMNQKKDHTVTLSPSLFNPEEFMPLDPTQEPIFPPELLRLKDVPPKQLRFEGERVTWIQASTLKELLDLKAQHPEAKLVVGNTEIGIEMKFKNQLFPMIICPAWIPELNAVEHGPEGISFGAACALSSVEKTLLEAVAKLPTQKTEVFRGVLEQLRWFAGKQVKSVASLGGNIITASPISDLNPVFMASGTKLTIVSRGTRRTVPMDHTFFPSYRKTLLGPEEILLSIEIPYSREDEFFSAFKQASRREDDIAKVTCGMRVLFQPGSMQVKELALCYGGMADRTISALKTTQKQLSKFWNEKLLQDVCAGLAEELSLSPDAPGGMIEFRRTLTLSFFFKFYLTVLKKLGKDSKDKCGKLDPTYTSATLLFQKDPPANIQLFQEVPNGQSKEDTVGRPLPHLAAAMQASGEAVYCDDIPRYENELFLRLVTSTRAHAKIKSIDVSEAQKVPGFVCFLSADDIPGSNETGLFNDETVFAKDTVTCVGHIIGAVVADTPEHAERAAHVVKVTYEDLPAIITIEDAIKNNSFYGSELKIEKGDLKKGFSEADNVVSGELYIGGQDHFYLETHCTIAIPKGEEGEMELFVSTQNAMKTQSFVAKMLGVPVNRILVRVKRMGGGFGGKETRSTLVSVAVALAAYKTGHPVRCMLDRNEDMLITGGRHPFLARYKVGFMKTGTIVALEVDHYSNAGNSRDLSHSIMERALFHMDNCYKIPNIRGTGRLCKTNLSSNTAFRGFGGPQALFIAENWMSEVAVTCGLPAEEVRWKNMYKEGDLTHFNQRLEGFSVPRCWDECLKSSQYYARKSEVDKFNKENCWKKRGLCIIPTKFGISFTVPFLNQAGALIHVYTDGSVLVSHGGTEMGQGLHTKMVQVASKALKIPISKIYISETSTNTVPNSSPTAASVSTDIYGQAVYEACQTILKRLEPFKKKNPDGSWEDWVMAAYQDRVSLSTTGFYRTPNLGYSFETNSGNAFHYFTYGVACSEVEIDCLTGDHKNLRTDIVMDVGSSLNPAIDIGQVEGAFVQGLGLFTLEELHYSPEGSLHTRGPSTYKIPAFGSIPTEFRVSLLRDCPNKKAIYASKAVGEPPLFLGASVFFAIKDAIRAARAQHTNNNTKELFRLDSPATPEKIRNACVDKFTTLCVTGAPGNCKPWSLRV
Procedure: (§1) The activity of XO was monitored in the absence and presence of 1 mM DEA/NO by two different assays. Superoxide-induced reduction of ferricytochrome c to ferrocytochrome c was monitored spectrophotometrically at 550 nm (Fridovich, Handbook of Method for Oxygen Radical Research, pages 213-215 (1985)). The reaction was carried out in a 1 ml volume in aerated phosphate buffer (pH 7.8, 50 mM) containing 50 μM DETAPAC. HX was maintained at 2.5 mM and ferricytochrome c at 20 μM. The reactions were initiated with the addition of XO (final concentration of 0.2 units/ml). The activity of XO in the absence and presence of 1 mM DEA/NO was directly monitored by measuring the production of uric acid spectrophotometrically at 305 nm for 10 min under the same conditions but in the absence of ferricytochrome c. All enzymatic assays and chemical reactions were done at 37° C.

[4] = molecular target: T1, XO; experiment: XO activity by uric acid production at 305 nm; type: biochemical; conditions: 1 mM, preincubated with HX/XO
Procedure: as §1

Which “protection from HX/XO-induced cytotoxicity” value [1] does the source give for `CCNCC` [diethylamine] here?
The value was “did not protect”.

What about the “effect on hydrogen peroxide cytotoxicity” value [2] of the same compound?
Its value is “had no effect on hydrogen peroxide cytotoxicity”.

What about the “protection from hydrogen peroxide cytotoxicity” value [2] of the same compound?
Its value is “did not protect”.

What about the “inhibition of XO activity, production of superoxide (cytochrome c reduction)” value [3] of the same compound?
The value was “did not inhibit the activity of XO”.

What about the “inhibition of XO activity, uric acid production” value [4] of the same compound?
Its value is “did not inhibit the activity of XO”.

How did the “protection from HX/XO-induced cytotoxicity” value [1] turn out when `O=NO` [nitrite] was run?
Its value is “did not protect”.

And the “effect on hydrogen peroxide cytotoxicity” value [2]?
Its value is “potentiated hydrogen peroxide cytotoxicity”.

What about the “protection from hydrogen peroxide cytotoxicity” value [2] of the same compound?
The value was “did not protect”.

And the “inhibition of XO activity, production of superoxide (cytochrome c reduction)” value [3]?
Its value is “did not inhibit the activity of XO”.

What about the “inhibition of XO activity, uric acid production” value [4] of the same compound?
Its value is “did not inhibit the activity of XO”.
